Laboratory results from patent US20080176936A1, “Classes of Compounds that Interact with Integrins” (priority 2005, published 2008).

How the values were obtained:
αVβ3 integrin = target: T1, αVβ3 integrin (Homo sapiens, UniProt P05106+P06756); assay: ELISA: inhibition of binding of αVβ3 integrin (source WM-115 cell line) to coated extracellular matrix protein; conditions: WM-115 cell line as integrin source
T1 construct: the cell line WM-115 was used as a source of αVβ3 integrin; endogenous in cells; host or cells: WM-115 cell line
Procedure: (§1) An ELISA assay based on the published method of Bethert et al., 2000, J Biol Chem 275, 33308-23, was employed.
(§2) Briefly, appropriate microtitre plates were coated with either Fibrinogen or Vitronectin (10 μg/well). These extracellular matrix proteins contain the RGD amino acid sequence that is recognized by αllbβ3 integrin. Human platelet membrane preparations were used as a source of αllbβ3 integrin and the cell line WM-115 was used as a source of αVβ3 integrin. Inhibition of the binding of αllbβ3 integrin containing membrane preparations to the extracellular matrix protein was determined by pre-incubating the platelet membrane preparation with test or control compounds. The binding of the αllbβ3 integrin containing membrane was the quantitated by using a rabbit anti-integrinβ3 antibody, a horse radish peroxidase coupled second antibody and a standard colorimetric detection system.

αllbβ3 integrin = target: T2, αllbβ3 integrin (Homo sapiens, UniProt P05106+P08514); assay: ELISA: inhibition of binding of αllbβ3 integrin membrane preparation to coated extracellular matrix protein; conditions: human platelet membrane preparation
T2 construct: Human platelet membrane preparations were used as a source of αllbβ3 integrin; from tissue; host or cells: human platelets (membrane preparation)
Procedure: as §1, §2

T2 sequence (P08514 32-887 limits assumed): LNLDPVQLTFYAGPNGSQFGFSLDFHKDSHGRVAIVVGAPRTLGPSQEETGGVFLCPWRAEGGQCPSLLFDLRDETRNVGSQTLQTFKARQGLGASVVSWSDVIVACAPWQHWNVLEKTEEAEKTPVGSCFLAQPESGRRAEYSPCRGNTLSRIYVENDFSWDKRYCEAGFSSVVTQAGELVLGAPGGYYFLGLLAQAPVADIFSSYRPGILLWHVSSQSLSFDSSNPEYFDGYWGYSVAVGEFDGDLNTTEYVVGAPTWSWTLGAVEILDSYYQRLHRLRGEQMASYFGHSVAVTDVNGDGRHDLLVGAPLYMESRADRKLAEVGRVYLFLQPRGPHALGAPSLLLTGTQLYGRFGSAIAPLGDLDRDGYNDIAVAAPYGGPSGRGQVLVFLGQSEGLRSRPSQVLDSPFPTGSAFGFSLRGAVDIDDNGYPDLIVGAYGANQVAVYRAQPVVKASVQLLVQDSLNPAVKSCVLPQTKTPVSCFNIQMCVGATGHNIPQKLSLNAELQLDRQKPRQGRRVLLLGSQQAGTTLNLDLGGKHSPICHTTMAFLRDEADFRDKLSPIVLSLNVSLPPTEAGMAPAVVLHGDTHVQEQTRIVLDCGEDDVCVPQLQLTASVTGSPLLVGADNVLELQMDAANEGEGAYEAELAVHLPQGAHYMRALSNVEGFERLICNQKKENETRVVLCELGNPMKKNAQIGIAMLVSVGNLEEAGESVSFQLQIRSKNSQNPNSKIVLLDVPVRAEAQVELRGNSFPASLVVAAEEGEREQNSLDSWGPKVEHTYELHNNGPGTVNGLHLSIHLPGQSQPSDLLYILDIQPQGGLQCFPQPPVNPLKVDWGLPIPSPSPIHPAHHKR
T2 sequence (P08514 891-1039 partner limits assumed): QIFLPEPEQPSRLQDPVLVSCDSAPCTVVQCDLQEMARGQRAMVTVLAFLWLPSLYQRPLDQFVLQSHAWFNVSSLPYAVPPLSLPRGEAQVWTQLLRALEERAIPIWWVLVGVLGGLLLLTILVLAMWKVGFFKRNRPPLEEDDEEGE
T2 sequence (P05106 27-788): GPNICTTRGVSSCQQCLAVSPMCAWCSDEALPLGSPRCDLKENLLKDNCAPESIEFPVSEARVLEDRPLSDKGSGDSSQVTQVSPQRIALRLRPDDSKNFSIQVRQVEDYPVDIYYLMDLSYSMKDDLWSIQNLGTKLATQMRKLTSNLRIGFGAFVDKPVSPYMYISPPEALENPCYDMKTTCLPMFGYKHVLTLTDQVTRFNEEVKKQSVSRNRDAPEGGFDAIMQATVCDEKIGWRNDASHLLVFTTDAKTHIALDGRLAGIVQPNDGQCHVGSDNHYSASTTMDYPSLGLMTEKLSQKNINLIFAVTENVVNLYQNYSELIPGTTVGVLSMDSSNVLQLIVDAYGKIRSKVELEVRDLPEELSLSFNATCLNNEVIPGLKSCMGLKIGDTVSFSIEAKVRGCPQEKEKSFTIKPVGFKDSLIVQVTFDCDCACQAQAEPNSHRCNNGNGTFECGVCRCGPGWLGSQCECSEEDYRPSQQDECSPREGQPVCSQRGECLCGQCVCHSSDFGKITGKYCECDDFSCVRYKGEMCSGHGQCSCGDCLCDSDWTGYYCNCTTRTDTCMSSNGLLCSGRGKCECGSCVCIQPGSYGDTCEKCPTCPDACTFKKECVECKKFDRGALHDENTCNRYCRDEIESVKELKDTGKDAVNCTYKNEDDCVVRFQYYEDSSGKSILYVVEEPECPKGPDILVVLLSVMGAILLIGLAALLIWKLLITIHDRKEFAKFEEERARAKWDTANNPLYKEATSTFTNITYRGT
T1 sequence (P06756 31-889 limits assumed): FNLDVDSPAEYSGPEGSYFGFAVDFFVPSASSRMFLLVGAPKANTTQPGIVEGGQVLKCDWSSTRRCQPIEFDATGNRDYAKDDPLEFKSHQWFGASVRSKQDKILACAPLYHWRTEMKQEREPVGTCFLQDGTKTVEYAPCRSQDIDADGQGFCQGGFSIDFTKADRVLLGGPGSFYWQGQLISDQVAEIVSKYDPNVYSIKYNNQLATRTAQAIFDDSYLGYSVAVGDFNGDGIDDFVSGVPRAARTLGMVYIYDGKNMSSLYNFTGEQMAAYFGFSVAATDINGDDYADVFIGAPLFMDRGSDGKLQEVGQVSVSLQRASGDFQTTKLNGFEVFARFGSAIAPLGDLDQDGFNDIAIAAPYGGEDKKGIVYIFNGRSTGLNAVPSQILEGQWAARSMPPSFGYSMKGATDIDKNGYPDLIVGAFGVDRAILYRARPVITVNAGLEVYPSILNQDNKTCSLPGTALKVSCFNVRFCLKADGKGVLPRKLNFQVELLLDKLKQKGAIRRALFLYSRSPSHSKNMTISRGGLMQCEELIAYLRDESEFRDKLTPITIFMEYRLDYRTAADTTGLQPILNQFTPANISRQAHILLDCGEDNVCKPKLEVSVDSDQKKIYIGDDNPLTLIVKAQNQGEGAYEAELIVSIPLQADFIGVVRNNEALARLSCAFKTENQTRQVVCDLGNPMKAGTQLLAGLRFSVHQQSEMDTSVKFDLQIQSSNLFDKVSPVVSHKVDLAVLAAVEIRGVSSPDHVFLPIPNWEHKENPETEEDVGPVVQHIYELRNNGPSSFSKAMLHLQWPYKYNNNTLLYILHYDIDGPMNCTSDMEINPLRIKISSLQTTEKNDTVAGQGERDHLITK
T1 sequence (P06756 891-1048 partner limits assumed): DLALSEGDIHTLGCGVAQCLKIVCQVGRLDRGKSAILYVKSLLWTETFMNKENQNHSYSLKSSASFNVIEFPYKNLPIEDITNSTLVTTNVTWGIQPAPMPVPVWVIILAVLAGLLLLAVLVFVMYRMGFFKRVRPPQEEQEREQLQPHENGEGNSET
T1 sequence (P05106 27-788): as the sequence (P05106 27-788) above

| Structure (SMILES) | INHIBITION 250 uM RECEPTOR aVb3 SUBSTRATE FIBRINOGEN (αVβ3 integrin) | INHIBITION @ 250 uM RECEPTOR allBb3 SUBSTRATE FIBRINOGEN (αllbβ3 integrin) | INHIBITION 250 uM RECEPTOR allBb3 SUBSTRATE VITRONECTIN (αllbβ3 integrin) |
| --- | --- | --- | --- |
| COC1OC(COCc2ccc(Br)cc2)C(O)C(OCc2cccc(N)c2)C1NC(=O)CCC(=O)O (single isomer, unassigned) [Compound 25] | +++ (81% to 100% inhibition at 250 micromolar) | + (36% to 60% inhibition at 250 micromolar) | +++ (81% to 100% inhibition at 250 micromolar) |
| Nc1cccc(COC2C(O)C(COCc3ccc(Br)cc3)OC(O)C2NC(=O)CCC(=O)O)c1 (single isomer, unassigned) [Compound 26] | ++ (61% to 80% inhibition at 250 micromolar) | + (36% to 60% inhibition at 250 micromolar) | +++ (81% to 100% inhibition at 250 micromolar) |
| COC1OC(COCC(=O)O)C(O)C(OCc2cccc(N)c2)C1NC(=O)c1ccccc1 (single isomer, unassigned) [Compound 27] | +++ (81% to 100% inhibition at 250 micromolar) | ++ (61% to 80% inhibition at 250 micromolar) | +++ (81% to 100% inhibition at 250 micromolar) |
| COC1OC(COCC(=O)O)C(O)C(OCc2cccc(N)c2)C1NC(=O)c1ccccc1 (single isomer, unassigned) [Compound 28] | +++ (81% to 100% inhibition at 250 micromolar) | + (36% to 60% inhibition at 250 micromolar) | +++ (81% to 100% inhibition at 250 micromolar) |
| Nc1cccc(COC2C(O)C(COCC(=O)O)OC(O)C2NC(=O)c2ccccc2)c1 (single isomer, unassigned) [Compound 29] | +++ (81% to 100% inhibition at 250 micromolar) | ++ (61% to 80% inhibition at 250 micromolar) | +++ (81% to 100% inhibition at 250 micromolar) |
| COC1OC(COCc2ccc(C(=O)O)cc2)C(O)C(OCc2cccc(N)c2)C1NC(=O)c1ccc(Cl)cc1 (single isomer, unassigned) [Compound 30] | +++ (81% to 100% inhibition at 250 micromolar) | ++ (61% to 80% inhibition at 250 micromolar) | +++ (81% to 100% inhibition at 250 micromolar) |
| COC1O[C@H](COCc2ccc(C(=O)O)cc2)[C@@H](O)[C@H](OCc2cccc(N)c2)[C@H]1NC(=O)c1ccc(Cl)cc1 (single isomer, unassigned) [Compound 31] | +++ (81% to 100% inhibition at 250 micromolar) | +++ (81% to 100% inhibition at 250 micromolar) | +++ (81% to 100% inhibition at 250 micromolar) |
| CCOC1O[C@H](COCC(=O)O)[C@@H](O)[C@H](OCc2ccccc2)[C@H]1NC(=O)c1cccc(N)c1 (single isomer, unassigned) [Compound 32] | − (0% to 35% inhibition at 250 micromolar) | + (36% to 60% inhibition at 250 micromolar) | +++ (81% to 100% inhibition at 250 micromolar) |
| Nc1cccc(C(=O)N[C@H]2C(O)O[C@H](COCC(=O)O)[C@@H](O)[C@@H]2OCc2ccccc2)c1 (single isomer, unassigned) [Compound 33] | − (0% to 35% inhibition at 250 micromolar) | ++ (61% to 80% inhibition at 250 micromolar) | − (0% to 35% inhibition at 250 micromolar) |
| Nc1cccc(C(=O)N[C@H]2C(O)O[C@H](COCC(=O)O)[C@@H](O)[C@@H]2OCc2ccccc2)c1 (single isomer, unassigned) [Compound 34] | +++ (81% to 100% inhibition at 250 micromolar) | + (36% to 60% inhibition at 250 micromolar) | +++ (81% to 100% inhibition at 250 micromolar) |
| CCOC1O[C@H](COCc2ccc(C(=O)O)cc2)[C@@H](O)[C@H](OCc2ccccc2)[C@H]1NC(=O)c1cccc(N)c1 (single isomer, unassigned) [Compound 35] | +++ (81% to 100% inhibition at 250 micromolar) | + (36% to 60% inhibition at 250 micromolar) | +++ (81% to 100% inhibition at 250 micromolar) |
| CCOC1O[C@H](COCc2cccc(N)c2)[C@@H](O)[C@H](OCc2ccccc2)[C@H]1NC(=O)c1ccc(C(=O)O)cc1 (single isomer, unassigned) [Compound 36] | +++ (81% to 100% inhibition at 250 micromolar) | + (36% to 60% inhibition at 250 micromolar) | +++ (81% to 100% inhibition at 250 micromolar) |
| CCOC1O[C@H](COCc2cccc(N)c2)[C@@H](O)[C@H](OCc2ccccc2)[C@H]1NC(=O)c1ccc(C(=O)O)cc1 (single isomer, unassigned) [Compound 37] | +++ (81% to 100% inhibition at 250 micromolar) | + (36% to 60% inhibition at 250 micromolar) | +++ (81% to 100% inhibition at 250 micromolar) |
| CCOC1O[C@H](COCC(=O)O)[C@@H](O)[C@H](OCc2ccc(Br)cc2)[C@H]1NC(=O)c1cccc(N)c1 (single isomer, unassigned) [Compound 38] | +++ (81% to 100% inhibition at 250 micromolar) | ++ (61% to 80% inhibition at 250 micromolar) | +++ (81% to 100% inhibition at 250 micromolar) |
| CCOC1O[C@H](COCC(=O)O)[C@@H](O)[C@H](OCc2ccc(Br)cc2)[C@H]1NC(=O)c1cccc(N)c1 (single isomer, unassigned) [Compound 39] | +++ (81% to 100% inhibition at 250 micromolar) | + (36% to 60% inhibition at 250 micromolar) | +++ (81% to 100% inhibition at 250 micromolar) |
| CCOC1O[C@H](COCc2ccc(C(=O)O)cc2)[C@@H](O)[C@H](OCc2ccc(Br)cc2)[C@H]1NC(=O)c1cccc(N)c1 (single isomer, unassigned) [Compound 40] | +++ (81% to 100% inhibition at 250 micromolar) | +++ (81% to 100% inhibition at 250 micromolar) | +++ (81% to 100% inhibition at 250 micromolar) |
| CCOC1O[C@H](COCc2ccc(C(=O)O)cc2)[C@@H](O)[C@H](OCc2ccc(Br)cc2)[C@H]1NC(=O)c1cccc(N)c1 (single isomer, unassigned) [Compound 41] | + (36% to 60% inhibition at 250 micromolar) | + (36% to 60% inhibition at 250 micromolar) | ++ (61% to 80% inhibition at 250 micromolar) |
| Nc1cccc(C(=O)N[C@H]2C(O)O[C@H](COCc3ccc(C(=O)O)cc3)[C@@H](O)[C@@H]2OCc2ccc(Br)cc2)c1 (single isomer, unassigned) [Compound 42] | − (0% to 35% inhibition at 250 micromolar) | + (36% to 60% inhibition at 250 micromolar) | +++ (81% to 100% inhibition at 250 micromolar) |
| CCOC1O[C@H](COCc2cccc(N)c2)[C@@H](O)[C@H](OCc2ccc(Br)cc2)[C@H]1NC(=O)CCC(=O)O (single isomer, unassigned) [Compound 44] | + (36% to 60% inhibition at 250 micromolar) | ++ (61% to 80% inhibition at 250 micromolar) | − (0% to 35% inhibition at 250 micromolar) |
| CCOC1O[C@H](COCc2cccc(N)c2)[C@@H](O)[C@H](OCc2ccc(Br)cc2)[C@H]1NC(=O)CCC(=O)O (single isomer, unassigned) [Compound 45] | +++ (81% to 100% inhibition at 250 micromolar) | ++ (61% to 80% inhibition at 250 micromolar) | +++ (81% to 100% inhibition at 250 micromolar) |
| Nc1cccc(COC[C@H]2OC(O)[C@H](NC(=O)CCC(=O)O)[C@@H](OCc3ccc(Br)cc3)[C@@H]2O)c1 (single isomer, unassigned) [Compound 46] | +++ (81% to 100% inhibition at 250 micromolar) | + (36% to 60% inhibition at 250 micromolar) | +++ (81% to 100% inhibition at 250 micromolar) |
| Nc1cccc(COC[C@H]2OC(O)[C@H](NC(=O)CCC(=O)O)[C@@H](OCc3ccc(Br)cc3)[C@@H]2O)c1 (single isomer, unassigned) [Compound 47] | − (0% to 35% inhibition at 250 micromolar) | + (36% to 60% inhibition at 250 micromolar) | +++ (81% to 100% inhibition at 250 micromolar) |
